“Also recorded” adds a separate entry of the source. One block for each compound: values may come before it.
Tests used:
[1] = test system: MBP-eAPP230–624; assay: ADAM10 cleavage of MBP-eAPP230–624 in vitro (sAPPα AlphaLISA); type: biochemical; details: 1 uM disulfiram 15 minutes, then ADAM10 60 minutes
Protocol: Then, ADAM10 was added for 60 minutes. Time points were taken every 20 minutes.

[2] = molecular target: T1, eAPP230–624 (Homo sapiens, UniProt P05067); assay: Difference absorption spectra of eAPP230–624; type: binding
T1 construct: made in house

[3] = test system: B103 rat neuroblastoma cells stably expressing human wild-type APP; assay: sAPPα and sAPPβ production in B103 cells (AlphaLISA); type: cell-based; details: 1 µM compound, 24 hours, 100,000 cells per well, vs 0.01% DMSO
Protocol: (§1) B103 rat neuroblastoma cells and 7W-CHO cells were seeded at 100,000 or 50,000 cells per well in a 96-well plate and allowed to grow for one day. The B103 rat neuroblastoma cells stably expressing human wild-type APP were a kind gift from Dr. Lennart Mucke (J. David Gladstone Institute of Neurological Disease and University of California, San Francisco). The 7W-CHO cells were a kind gift from Dr. Edward Koo (Department of Molecular Pathology, University of California, San Diego). The cell culture medium was then changed and the cells treated with 1 µM disulfiram, 1 µM sulfiram, or 0.01% DMSO (control). After 24 hours, the amount of sAPPα and sAPPβ produced in the medium was quantified using the AL231C and AL232C AlphaLISA kits from Perkin Elmer, respectively, modified using a custom biotinylated APP antibody.
A) Effect of treatment with disulfiram and sulfiram on sAPPα and Aβ production in 7W-CHO cells. […] After 24 hours, the amount of sAPPα and sAPPβ produced in the medium was quantified using the AL231C and AL232C AlphaLISA kit from Perkin Elmer, modified using a custom biotinylated human APP antibody. B) Effect on the ratio of α to β cleavage in 7W-CHO cells, as calculated by dividing the amount of sAPPα to sAPPβ produced by the 50,000 7W-CHO cells during one day under the effect of either disulfiram, sulfiram or a DMSO control. […]

[4] = test system: 7W-CHO cells; assay: sAPPα and sAPPβ production in 7W-CHO cells (AlphaLISA); type: cell-based; details: 1 µM compound, 24 hours, 50,000 cells per well, vs 0.01% DMSO
Protocol: as §1
A) Effect of treatment with disulfiram and sulfiram on sAPPα and Aβ production in 7W-CHO cells. 7W-CHO cells were seeded at 50,000 cells per well in a 96-well plate and allowed to grow for one day. The cell culture medium was then changed and the cells treated with 1 µM disulfiram, 1 µM sulfiram, or 0.01% DMSO (control). After 24 hours, the amount of sAPPα and sAPPβ produced in the medium was quantified using the AL231C and AL232C AlphaLISA kit from Perkin Elmer, modified using a custom biotinylated human APP antibody. B) Effect on the ratio of α to β cleavage in 7W-CHO cells, as calculated by dividing the amount of sAPPα to sAPPβ produced by the 50,000 7W-CHO cells during one day under the effect of either disulfiram, sulfiram or a DMSO control. C) Effect on the ratio of α to β cleavage in B103 cells. B103 neuroblastoma cells were seeded at 100,000 cells per well in a 96-well plate and allowed to grow for one day. The cell culture medium was then changed and the cells treated with 1 µM disulfiram, 1 µM sulfiram, or 0.01% DMSO (Control). After 24 hours, the amount of sAPPα and sAPPβ produced in the medium was quantified using the same modified AL231C and AL232C AlphaLISA kit from Perkin Elmer. The ratio of α to β cleavage was calculated by dividing the amount of sAPPα to sAPPβ produced by the 100,000 B103 cells during one day under the effect of the disulfiram, sulfiram or DMSO control.

[5] = test system: MBP-eAPP230–624; assay: Small-angle X-ray scattering (SAXS) of MBP-eAPP230–624 complexes; type: binding; details: 50 µM compound, 1:12 molar ratio, PBS plus 2% DMSO
Protocol: (§2) The excitation spectra of the intrinsic tryptophan fluorescence were recorded using either a Shimadzu RF-530PC (Shimadzu Scientific Instruments) or a Spectramax XPS spectrophotometer (Molecular Devices).
The samples were incubated on ice for 20 minutes and then concentrated to 50 µl with 10-kDa cutoff concentrators (Millipore). […] Samples of the filtrates were used for buffer subtraction.
The samples were then concentrated and purified with a Superdex S200 size-exclusion column with 20 mM Tris pH 7.4, 100 mM sodium chloride and 2 mM EDTA. Samples of the protein buffer from the size-exclusion columns were used for buffer subtraction.
Data collection and processing
Small-angle X-ray scattering data were collected using protein concentrations in the range of 0.5–3 mg/ml and an X-ray wavelength of 1.11 Å at beam line 12.3.1 (Advanced Light Source). Data were integrated with software customized for the beam line and processed with the program PRIMUS [30]. The program GNOM [31] was used to calculate the maximum dimension and the radius of gyration and to estimate the intensity of the scattering at zero angle for higher concentration samples.

[6] = molecular target: T1, eAPP230–624; assay: Intrinsic tryptophan fluorescence of eAPP230–624; type: binding; details: for quenching constant (Ksv): linear part, equation 1
Protocol: as §2
Full emission spectra were measured with the Shimadzu RF-530PC using a 3 ml quartz cuvette, a 5 nm slit width and protein concentrations between 0.2–0.6 µM. […] For these larger dilutions, control titrations with the protein alone were used to generate a scaling matrix where the scale factor was both a function of wavelength and dilution. […] A similar scaling matrix was used to correct for the effect of dilution with DMSO. […] All titrations were performed at 24°C. The oligomers were stored on ice during the experiment.
These concentrations are analogous to concentrations used to create complexes for the small angle x-ray scattering analysis. The incubated material was diluted with PBS so that the final protein concentration was 0.5 µM. The spectra were recorded with the Shimadzu […].
For experiments with the Spectromax XPS plate reader, an excitation wavelength of 295 nm was used. This excitation wavelength was chosen to minimize both the contribution of tyrosine in the protein and the background fluorescence of the 96-well plates (Costar #3915).
For the quenching experiments, the data were analyzed by constructing Stern-Volmer plots, F0/F vs. Q, where Fo is the intensity of the fluorescence at zero concentration, F is the intensity of the fluorescence, and Q is the concentration of the quenching agent. When quenching is through either a static (binding) or dynamic (collisional) mechanism this plot is linear and follows the equation: [drawing 1] (1) where Ksv is the quenching constant. When both processes are present the Stern-Volmer plot is quadratic: [drawing 2] (2) where KD is the equilibrium constant associated with dynamic quenching and Ks is the equilibrium constant associated with static quenching. All parameters were determined using PRISM (GraphPad) and the appropriate non-linear curve fitting routine.
The centroid wavelength (λc) was calculated as: [drawing 3] (3) where I(λi) is the intensity observed for the wavelength (λi). The range of wavelengths was 310–390 nm.

[7] = test system: Aβ oligomers; details: cited from earlier work
[8] = molecular target: TRX-eAPP_(290–624), thioredoxin fusion protein containing residues 290–624 of APP695 (UniProt P05067); assay: small-angle X-ray scattering (SAXS); eAPP fragment incubated on ice with Aβ oligomers or Aβ fragments (peptide less than 10 µM), concentrated and purified on Superdex S200 in 20 mM Tris pH 7.4, 100 mM sodium chloride, 2 mM EDTA
[9] = molecular target: eAPP_(230–624), fragment of the APP ectodomain containing residues 230–624 (UniProt P05067); assay: as above
[10] = molecular target: MBP-eAPP_(230–624), maltose binding protein fusion protein containing residues 230–624 (UniProt P05067); assay: small-angle X-ray scattering (SAXS); 150 µl MBP-eAPP230-624 (≈0.5 mg/ml) diluted with 400 µl of peptide solution, 20 minutes on ice, concentrated to 50 µl with 10-kDa cutoff concentrators

fluorescence peak wavelength (shifted from 344 nm) ([6]; 0.64 µM eAPP230–624, disulfiram 0–130 µM): 357 nm
Stern-Volmer slope relative to sulfiram ([6]; 0.64 µM eAPP230–624, disulfiram vs sulfiram): 1.6 times
Compound: CCN(CC)C(=S)SSC(=S)N(CC)CC [Disulfiram]
accessibility of the α-cleavage site to ADAM10 cleavage (in words) [1]: increase the accessibility of the α-cleavage site near lysine 612 to ADAM10 cleavage
change in extinction coefficient ([2]; 1:6 molar ratio, 8.3 µM eAPP230–624, 50 µM compound, PBS plus 2% DMSO): significant drop in the extinction coefficient
sAPPα production / α-cleavage of APP (in words) [3]: significantly enhance the production of sAPPα; also recorded: enhance α-cleavage significantly
sAPPα production / α-cleavage of APP (in words) [4]: increase sAPPα production
sAPPα production / α-cleavage of APP (in words) ([4]; listed as disulfiram): significantly enhance the production of sAPPα; also recorded: enhance α-cleavage significantly
effect on monomer-dimer equilibrium / dimerization of MBP-eAPP230–624 (in words) [5]: inhibits dimerization of MBP-eAPP230–624
effect on monomer-dimer equilibrium / dimerization of MBP-eAPP230–624 (in words) ([5]; listed as disulfiram): significantly affected the monomer-dimer equilibrium of MBP-eAPP230–624 in favor of the monomer; also recorded: mixture of monomer and dimer
quenching of intrinsic fluorescence (in words) ([6]; 0.64 µM eAPP230–624, disulfiram 0–130 µM, sulfiram 0–320 µM, Shimadzu RF-530PC): significantly quenched the intrinsic fluorescence
relative binding affinity for eAPP230–624 (in words) ([6]; inferred from Stern-Volmer slopes, disulfiram vs sulfiram): higher binding affinity for eAPP230–624 than sulfiram
effect on dimerization of the ectodomain fragment (in words) ([6]; intrinsic fluorescence, confirmed with SAXS): inhibit dimerization of the ectodomain fragment

Compound: O=S(=O)(O)c1cccc2cccc(Nc3ccccc3)c12 [1,8-ANS, 1-anilinonaphthalene-8-sulfonic acid]
effect on absorption of eAPP230–624 ([2]; one-to-ten molar ratio protein to 1,8-ANS, 3 µM eAPP230–624): significant effect on the absorption
binding to Aβ oligomers and Aβ aggregation [7]: bind to Aβ oligomers and prevent Aβ aggregation
fluorescence intensity drop ([6]; 1,8-ANS below 50 µM (1:14 protein to 1,8-ANS molar ratio)): more than 50%
quenching of fluorescence at high concentration ([6]; 1,8-ANS greater than 150 µM): quench nearly all the fluorescence
quenching of intrinsic fluorescence (FRET) ([6]; 1:20 protein to 1,8-ANS molar ratio, excitation wavelengths greater than 285 nm): efficiently quenched the intrinsic fluorescence
quenching constant (Ksv) ([6]; 345 nm, Shimadzu RF-530PC, 0.64 µM eAPP230–624, 24°C): 9.3 ± 0.1 mM⁻¹
quenching constant (Ksv) ([6]; 375 nm, Shimadzu RF-530PC, 0.64 µM eAPP230–624, 24°C): 10.9 ± 0.2 mM⁻¹
quenching constant (Ksv) ([6]; 375 nm, Spectramax XPS plate reader): 9.6 ± 0.3 mM⁻¹

MWcalc/MWseq (apparent mass of the sample over the sequence mass of the eAPP fragment) [8]: 1.5
MWcalc/MWseq (apparent mass of the sample over the sequence mass of the eAPP fragment) [9]: 0.9
MWcalc/MWseq (apparent mass of the sample over the sequence mass of the eAPP fragment) [10]: 1.2
Compound: Aβ1-28 (peptide)

From publication PMC3386930, “Altering APP Proteolysis: Increasing sAPPalpha Production by Targeting Dimerization of the APP Ectodomain” (PLoS ONE, 2012)
